Data taken from patent EP2366702A1, “New oxadiazole derivatives” (Almirall, S.A., priority 2010, dated 2011).

Target: S1P1 (Homo sapiens, UniProt P21453)
Assay: 35S-GTPyS binding assay
Assay type: biochemical
Settings: membranes; 10µM S1P used as 100% maximum efficacy; 90 min at room temperature
Protocol: The effect of the compounds was measured using a 35S-GTPyS binding assay. Briefly, membranes were incubated in a buffer containing 20 mM HEPES pH 7.4, 100 mM NaCl, 10 mM MgCl2, 10µM GDP, 50µg/ml saponin and 0.2% fatty acid-free BSA at various concentrations (0.1nM-10µM) and 0.1nM 35S-GTPyS. 10µM S1P was used as 100% maximum efficacy. The assay was incubated for 90 min at room temperature with gentle mixing, and terminated by filtrating the reaction mixture through GF/C filter plates using the Manifold Filtration System. The filters were immediately washed with sodium phosphate pH 7.4 buffers. After drying the filter plate's scintillant liquid were added to each well and 35S-GTPyS binding was measured on a Trilux Scintillation Counter.

S1P1, sequence (P21453 whole entry, species assumed): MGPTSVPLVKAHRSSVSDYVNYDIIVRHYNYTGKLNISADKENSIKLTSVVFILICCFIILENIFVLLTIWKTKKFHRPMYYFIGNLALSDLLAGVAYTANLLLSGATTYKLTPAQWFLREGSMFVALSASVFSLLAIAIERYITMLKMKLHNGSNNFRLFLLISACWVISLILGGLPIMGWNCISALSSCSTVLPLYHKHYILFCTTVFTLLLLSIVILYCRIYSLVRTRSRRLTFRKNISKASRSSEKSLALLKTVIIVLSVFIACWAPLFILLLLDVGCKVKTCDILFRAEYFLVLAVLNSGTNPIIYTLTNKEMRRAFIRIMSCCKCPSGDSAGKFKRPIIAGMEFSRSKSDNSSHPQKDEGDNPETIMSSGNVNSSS

Row | SMILES | EC50 [nM]
1 | Cc1cc(-c2noc(-c3nn(C)c4c3CCC(C)(C)C4)n2)cc(C)c1CCn1nccc1C(=O)O [Example 24, 1-(2-{2,6-dimethyl-4-[5-(1,6,6-trimethyl-4,5,6,7-tetrahydro-1H-indazol-3-yl)-1,2,4-oxadiazol-3-yl]phenyl}ethyl)-1H-pyrazole-5-carboxylic acid] | 10.3
2 | Cc1cc(-c2noc(-c3nn(C)c4c3CCC(C)(C)C4)n2)cc(C)c1CCn1cncn1 [Example 16, 3-(3-{3,5-dimethyl-4-[2-(1H-1,2,4-triazol-1-yl)ethyl]phenyl}-1,2,4-oxadiazol-5-yl)-1,6,6-trimethyl-4,5,6,7-tetrahydro-1H-indazole] | 12.1
3 | Cc1cc(-c2noc(-c3nn(C)c4c3CCC(C)(C)C4)n2)cc(C)c1CCC(C)(C)O [Example 17, 4-{2,6-dimethyl-4-[5-(1,6,6-trimethyl-4,5,6,7-tetrahydro-1H-indazol-3-yl)-1,2,4-oxadiazol-3-yl]phenyl}-2-methylbutan-2-ol] | 37.5
4 | Cc1cc(-c2noc(-c3nn(C)c4c3CCC(C)(C)C4)n2)cc(C)c1CCNCCn1cncn1 [Example 6, (2-{2,6-dimethyl-4-[5-(1,6,6-trimethyl-4,5,6,7-tetrahydro-1H-indazol-3-yl)-1,2,4-oxadiazol-3-yl]phenyl}ethyl)[2-(1H-1,2,4-triazol-1-yl)ethyl]amine] | 19.2
5 | Cc1cc(-c2noc(-c3nn(C)c4c3CCC(C)(C)C4)n2)cc(C)c1CCP(=O)(O)O [Example 21, (2-{2,6-dimethyl-4-[5-(1,6,6-trimethyl-4,5,6,7-tetrahydro-1H-indazol-3-yl)-1,2,4-oxadiazol-3-yl]phenyl}ethyl)phosphonic acid] | 3.08

Continued by falling EC50, values first:

Row | EC50 [nM] | SMILES
6 | 6.37 | Cc1cc(-c2noc(-c3nn(C)c4c3CCC(C)(C)C4)n2)cc(C)c1CCn1cc(C(=O)O)cn1 [Example 22, 1-(2-{2,6-dimethyl-4-[5-(1,6,6-trimethyl-4,5,6,7-tetrahydro-1H-indazol-3-yl)-1,2,4-oxadiazol-3-yl]phenyl}ethyl)-1H-pyrazole-4-carboxylic acid]
7 | 1.99 | Cc1cc(-c2noc(-c3nn(C)c4c3CCC(C)(C)C4)n2)cc(C)c1CCNC(=O)CN [Example 2, N-1-(2-{2,6-dimethyl-4-[5-(1,6,6-trimethyl-4,5,6,7-tetrahydro-1H-indazol-3-yl)-1,2,4-oxadiazol-3-yl]phenyl}ethyl)glycinamide]
